Experimental findings from ChEMBL document CHEMBL6120997, “Macrocyclic Compounds with Diverse Skeletons from the Roots of Myrica nana and Their Spasmolytic Activity” (J Nat Prod, 2025) are described below.

Assay [1] concerns Ileum. Nature of the assay: Ex vivo spasmolytic activity in ACh-induced contractions in Sprague-Dawley rat ileum incubated for 5 mins. The assay is classed as functional, tissue-based.
In assay [2] the test system is Ileum. Put plainly: Ex vivo spasmolytic activity in ACh-induced contractions in Sprague-Dawley rat ileum at 0.5 to 8 uM incubated for 5 mins relative to control. It counts as functional. The note with it: dose 0.5-8 µM.
The test system of assay [3] is Ileum. Put plainly: Ex vivo spasmolytic activity in ACh-induced contractions in Sprague-Dawley rat ileum incubated for 5 mins in presence of 4-AP. It counts as functional, tissue-based.
Assay [4] relates to Ileum. Nature of the assay: Ex vivo spasmolytic activity in ACh-induced contractions in Sprague-Dawley rat ileum at 0.5 to 8 uM incubated for 5 mins in presence of 4-AP relative to control. It counts as functional. The note with it: dose 0.5-8 µM.
The test system of assay [5] is Ileum. Put plainly: Ex vivo spasmolytic activity in ACh-induced contractions in Sprague-Dawley rat ileum incubated for 5 mins in presence of TEA. The assay is classed as functional, tissue-based.
In assay [6] the test system is Ileum. Nature of the assay: Ex vivo spasmolytic activity in ACh-induced contractions in Sprague-Dawley rat ileum at 0.5 to 8 uM incubated for 5 mins in presence of TEA relative to control. The note with it: dose 0.5-8 µM. The assay is classed as functional.
For assay [7], the system named is Ileum. Put plainly: Ex vivo spasmolytic activity in ACh-induced contractions in Sprague-Dawley rat ileum incubated for 5 mins in presence of CsCl. It counts as functional, tissue-based.
Assay [8] has as its system Ileum. Put plainly: Ex vivo spasmolytic activity in ACh-induced contractions in Sprague-Dawley rat ileum at 0.5 to 8 uM incubated for 5 mins in presence of CsCl relative to control. The assay is classed as functional. The note with it: dose 0.5-8 µM.
Assay [9] deals with Ileum. Put plainly: Ex vivo spasmolytic activity in ACh-induced contractions in Sprague-Dawley rat ileum incubated for 5 mins in presence of GLIB. It counts as functional, tissue-based.
In assay [10] the test system is Ileum. Put plainly: Ex vivo spasmolytic activity in ACh-induced contractions in Sprague-Dawley rat ileum at 0.5 to 8 uM incubated for 5 mins in presence of GLIB relative to control. The note with it: dose 0.5-8 µM. The assay is classed as functional.
Assay [11] deals with Ileum. Nature of the assay: Ex vivo spasmolytic activity in ACh-induced contractions in Sprague-Dawley rat ileum incubated for 5 mins in presence L-NAME. It counts as functional, tissue-based.
In assay [12] the test system is Ileum. Nature of the assay: Ex vivo spasmolytic activity in ACh-induced contractions in Sprague-Dawley rat ileum at 0.5 to 8 uM incubated for 5 mins in presence L-NAME relative to control. The assay is classed as functional. The note with it: dose 0.5-8 µM.
Assay [13] has as its system Ileum. Put plainly: Ex vivo spasmolytic activity in ACh-induced contractions in Sprague-Dawley rat ileum incubated for 5 mins in presence ODQ. It counts as functional, tissue-based.
For assay [14], the system named is Ileum. Nature of the assay: Ex vivo spasmolytic activity in ACh-induced contractions in Sprague-Dawley rat ileum at 0.5 to 8 uM incubated for 5 mins in presence ODQ relative to control. To be noted: dose 0.5-8 µM. The assay is classed as functional.
The subject of assay [15] is Ileum. Nature of the assay: Ex vivo spasmolytic activity in ACh-induced contractions in Sprague-Dawley rat ileum at 2 uM incubated for 5 mins. The assay is classed as functional, tissue-based.
Assay [16] relates to Ileum. Nature of the assay: Ex vivo spasmolytic activity in CaCl2-induced contractions in Sprague-Dawley rat ileum at 1 to 2 uM incubated for 15 mins. It counts as functional, tissue-based. The note with it: dose 1-2 µM.

As a reminder, the EC50 is the concentration needed to bring the measured effect to its halfway point. For orientation: Emax means the greatest response seen or fitted, relative to the assay's reference.

Structures are written as SMILES. The source made the active and inactive calls. No cut-off for these calls is given here.

In the assay on Ileum [1], `COc1c2cc(c(O)c1OC)CCCCC(=O)CCc1ccc(O)c-2c1` [MYRICANONE] came in with an EC50 of 2900 nM.
Still for that read-out and setting: under `COc1c2cc(c(O[C@@H]3O[C@H](CO)[C@@H](O)[C@H](O)[C@H]3O)c1OC)CCCC(=O)[C@@H](O)Cc1ccc(O)c-2c1` stands 1600 nM.
Take `COc1cc2cc(c1OC)-c1cc(ccc1O)C[C@H](O)C(=O)CCC2`: the EC50 is 1400 nM in the assay on Ileum [1]; 1900 nM in the assay on Ileum [3]; 1500 nM in the assay with Ileum [5]; 1600 nM in the assay with Ileum [7]; 1700 nM in the assay with Ileum [9]; 5100 nM with Ileum [11]. In addition, the EC50 with Ileum [13] was 1600 nM. The Emax in the assay on Ileum [2] came out at 79.8%; with Ileum [4], 71.9%; in the assay on Ileum [6], 60.8%; in the assay on Ileum [8], 82.7%; in the assay on Ileum [10] it was 84.9%; with Ileum [12], 43%. The compound further returned an Emax with Ileum [14] of 81.7%. For the same compound, the Activity entry in the assay with Ileum [15] was “Active; Activity Less Than Dichloromethane”. In addition, the outcome with Ileum [16] was Active.
For the compound `COc1c2cc(c(O[C@@H]3O[C@H](CO)[C@@H](O)[C@H](O)[C@H]3O)c1OC)CCCCC(=O)CCc1ccc(O)c-2c1`, a half-maximal response in the assay on Ileum [1] (EC50) required 2300 nM.
The same measure, in the same setting: under `COc1c2cc(c(O)c1OC)CCCC[C@@H](O)CCc1ccc(O)c-2c1` stands 2900 nM; under `COc1c2cc(c(O[C@@H]3O[C@H](CO)[C@@H](O)[C@H](O)[C@H]3O)c1OC)CCCC[C@@H](O)CCc1ccc(O)c-2c1`, 3200 nM.
On the same count and under the same terms, the figure for `COc1c2cc(c(OC)c1OC)-c1cc(ccc1O)C[C@@H](O)[C@@H](O)CCCC2` is 2800 nM; for `COc1c2cc(c(O[C@@H]3O[C@H](CO)[C@@H](O)[C@H](O)[C@H]3O)c1OC)CCCC[C@@H](OC(C)=O)CCc1ccc(O)c-2c1` it is 2800 nM.
Still for that read-out and setting: the figure for `COc1c2cc(c(O)c1OC)CCCC(=O)[C@@H](O)Cc1ccc(O)c-2c1` is 5100 nM.
As to `COc1c2cc(c(O)c1OC)CCCC[C@@H](OC(C)=O)CCc1ccc(O)c-2c1`, a half-maximal response in the assay with Ileum [1] (EC50) required 3700 nM.
Same read-out and setting: the figure for `COc1c2ccc(c1O)CCCCC(=O)CCc1ccc(O)c(c1)O2` is 3800 nM.
The same measure, in the same setting: the figure for `COc1cc2cc(c1OC)-c1cc(ccc1O)CCC(=O)CCCC2` is 5000 nM; for `COc1c2cc(c(OC)c1OC)-c1cc(ccc1O)[C@H](O)CC(=O)CCCC2` it is 4600 nM; for `COc1c2cc(c(OC)c1O)-c1cc(ccc1O)CC[C@H](O)CCCC2` it is 1500 nM.
Still for that read-out and setting: the figure for `COc1c2cc(c(O[C@@H]3O[C@H](CO)[C@@H](O)[C@H](O)[C@H]3O)c1OC)CCCCC(=O)[C@@H](O)Cc1ccc(O)c-2c1` is 2400 nM; for `COc1c2cc(c(O[C@@H]3O[C@H](CO)[C@@H](O)[C@H](O)[C@H]3O)c1OC)CCCC[C@H](O)CCc1ccc(O)c-2c1` it is 2400 nM; for `COc1c2ccc(c1O[C@@H]1O[C@H](CO)[C@@H](O)[C@H](O)[C@H]1O)CCCCC(O)CCc1ccc(O)c(c1)O2` (stereo partly drawn) it is 3600 nM.
On to `CCN(CC)CCOC(=O)C1(C2CCCCC2)CCCCC1` [DICYCLOMINE], for which, in the assay on Ileum [1], the EC50 was 600 nM.
